According to ChEMBL document CHEMBL5723586, “Data for DCP probe BI-1915” (2024):
Active and inactive are the calls of the source. The calls are words filed in the database; no cut-off is given here.

Columns and labels:
[1] = biological target: 5-hydroxytryptamine receptor 1B (Homo sapiens) (UniProt P28222); assay: 5-HT1B Eurofins-Cerep binding assay; set-up: ligand concentration 1 nM; details: Compound concentration 10.0 uM
[2] = biological target: Cannabinoid receptor 1 (Homo sapiens) (UniProt P21554); assay: CB1 Eurofins-Cerep binding assay; details: Compound concentration 10.0 uM
Sequence of Cannabinoid receptor 1 (Homo sapiens) (P21554 whole entry): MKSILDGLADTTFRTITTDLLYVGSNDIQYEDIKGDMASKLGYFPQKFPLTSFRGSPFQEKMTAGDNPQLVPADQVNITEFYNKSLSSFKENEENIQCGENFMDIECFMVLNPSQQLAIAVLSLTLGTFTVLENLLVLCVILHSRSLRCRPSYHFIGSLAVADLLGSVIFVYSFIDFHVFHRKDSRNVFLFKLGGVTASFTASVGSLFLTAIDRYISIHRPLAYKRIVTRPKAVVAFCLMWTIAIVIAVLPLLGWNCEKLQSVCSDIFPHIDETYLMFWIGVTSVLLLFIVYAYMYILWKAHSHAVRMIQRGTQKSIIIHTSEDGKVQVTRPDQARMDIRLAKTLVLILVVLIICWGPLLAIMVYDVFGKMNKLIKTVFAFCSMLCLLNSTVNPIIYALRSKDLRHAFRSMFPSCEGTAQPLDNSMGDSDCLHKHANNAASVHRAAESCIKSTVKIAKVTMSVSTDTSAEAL

[3] = biological target: Prostaglandin G/H synthase 1 (Homo sapiens) (UniProt P23219); assay: Inhibitor of COX-1 in the Eurofins Cerep SafetyScreen44 (BI) by Fluorimetry (Cerep_4173); details: Compound concentration 10.0 uM
[4] = biological target: Prostaglandin G/H synthase 2 (Homo sapiens) (UniProt P35354); assay: Inhibitor of COX-2 in the Eurofins Cerep SafetyScreen44 (BI) by Fluorimetry (Cerep_4186); details: Compound concentration 10.0 uM
[5] = biological target: Kappa-type opioid receptor (Homo sapiens) (UniProt P41145); assay: kappa (KOP) Eurofins-Cerep binding assay; details: Compound concentration 10.0 uM
[6] = biological target: 5-hydroxytryptamine receptor 1A (Homo sapiens) (UniProt P08908); assay: 5-HT1A Eurofins-Cerep binding assay; set-up: ligand concentration 0.5 nM; details: Compound concentration 10.0 uM
[7] = biological target: 5-hydroxytryptamine receptor 2A (Homo sapiens) (UniProt P28223); assay: Agonist activity in the Eurofins Cerep SafetyScreen44 (BI) against 5HT2AH_AGON by Scintillation counting (Cerep_471); details: Compound concentration 10.0 uM
[8] = biological target: 5-hydroxytryptamine receptor 2B (Homo sapiens) (UniProt P41595); assay: 5-HT2B Eurofins-Cerep binding assay; details: Compound concentration 10.0 uM
[9] = biological target: 5-hydroxytryptamine receptor 3A (Homo sapiens) (UniProt P46098); assay: 5-HT3 Eurofins-Cerep binding assay; set-up: ligand concentration 0.5 nM; details: Compound concentration 10.0 uM
[10] = biological target: Adenosine receptor A2a (Homo sapiens) (UniProt P29274); assay: A2A Eurofins-Cerep binding assay; set-up: ligand concentration 6 nM; details: Compound concentration 10.0 uM
Sequence of Adenosine receptor A2a (Homo sapiens) (P29274 whole entry): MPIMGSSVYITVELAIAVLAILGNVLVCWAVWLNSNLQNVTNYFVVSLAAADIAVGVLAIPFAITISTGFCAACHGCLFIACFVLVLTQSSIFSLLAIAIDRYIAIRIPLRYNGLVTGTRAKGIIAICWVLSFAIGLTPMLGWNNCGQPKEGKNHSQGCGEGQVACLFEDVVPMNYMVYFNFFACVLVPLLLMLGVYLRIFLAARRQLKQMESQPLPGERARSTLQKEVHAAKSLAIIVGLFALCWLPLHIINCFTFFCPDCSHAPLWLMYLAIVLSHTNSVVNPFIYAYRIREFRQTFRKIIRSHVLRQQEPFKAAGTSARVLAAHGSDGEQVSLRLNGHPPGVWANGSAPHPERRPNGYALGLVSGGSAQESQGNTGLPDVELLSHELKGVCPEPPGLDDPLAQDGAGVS

[11] = biological target: Angiotensin-converting enzyme (Homo sapiens) (UniProt P12821); assay: Activity against ACE(HU_AMTCH400) in the Eurofins Cerep SafetyScreen44 (BI) by Photometry (Cerep_3441); details: Compound concentration 10.0 uM
[12] = biological target: Alpha-1A adrenergic receptor (Homo sapiens) (UniProt P35348); assay: Agonist activity in the Eurofins Cerep SafetyScreen44 (BI) against ALPHA1AH_ANTAG by Scintillation counting (Cerep_2338); details: Compound concentration 10.0 uM
Sequence of Alpha-1A adrenergic receptor (Homo sapiens) (P35348 whole entry): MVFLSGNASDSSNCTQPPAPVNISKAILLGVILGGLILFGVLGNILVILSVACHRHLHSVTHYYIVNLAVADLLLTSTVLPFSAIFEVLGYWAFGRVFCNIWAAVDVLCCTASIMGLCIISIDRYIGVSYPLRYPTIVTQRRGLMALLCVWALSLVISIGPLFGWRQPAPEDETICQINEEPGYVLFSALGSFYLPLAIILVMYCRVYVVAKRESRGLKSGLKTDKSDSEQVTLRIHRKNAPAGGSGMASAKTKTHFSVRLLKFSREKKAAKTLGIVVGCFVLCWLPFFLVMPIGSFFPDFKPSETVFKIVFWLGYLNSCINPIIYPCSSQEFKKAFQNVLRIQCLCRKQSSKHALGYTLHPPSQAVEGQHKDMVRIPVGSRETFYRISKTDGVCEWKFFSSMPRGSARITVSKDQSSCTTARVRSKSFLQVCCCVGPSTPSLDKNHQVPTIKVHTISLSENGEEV

[13] = biological target: Alpha-2A adrenergic receptor (Homo sapiens) (UniProt P08913); assay: Inhibitor of ALPHA2A/HU in the Eurofins Cerep SafetyScreen44 (BI) by Radioactive Assay (Cerep_13); details: Compound concentration 10.0 uM
[14] = biological target: Beta-1 adrenergic receptor (Homo sapiens) (UniProt P08588); assay: beta 1 Eurofins-Cerep binding assay; set-up: ligand concentration 0.3 nM; details: Compound concentration 10.0 uM
Sequence of Beta-1 adrenergic receptor (Homo sapiens) (P08588 whole entry, looked up): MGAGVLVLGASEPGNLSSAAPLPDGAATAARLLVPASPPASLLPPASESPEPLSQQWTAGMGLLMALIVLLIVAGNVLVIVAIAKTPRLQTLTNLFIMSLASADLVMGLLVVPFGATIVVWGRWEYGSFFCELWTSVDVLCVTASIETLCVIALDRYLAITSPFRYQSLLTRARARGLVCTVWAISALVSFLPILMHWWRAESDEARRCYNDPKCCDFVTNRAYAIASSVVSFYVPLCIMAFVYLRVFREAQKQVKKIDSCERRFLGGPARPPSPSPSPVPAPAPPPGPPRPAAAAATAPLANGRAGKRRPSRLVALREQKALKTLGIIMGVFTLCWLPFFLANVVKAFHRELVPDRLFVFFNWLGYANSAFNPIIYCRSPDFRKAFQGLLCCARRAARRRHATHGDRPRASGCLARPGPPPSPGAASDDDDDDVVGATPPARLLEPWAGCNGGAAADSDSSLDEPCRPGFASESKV

[15] = biological target: Beta-2 adrenergic receptor (Homo sapiens) (UniProt P07550); assay: beta 2 Eurofins-Cerep binding assay; details: Compound concentration 10.0 uM
Rattus norvegicus [16] = organism: Rattus norvegicus; assay: Activity against BZD/CENTR/R in the Eurofins Cerep SafetyScreen44 (BI) by Radioactive Assay (Cerep_28); format: protein-complex assay; details: Compound concentration 10.0 uM
[17] = biological target: L-type calcium channel (dihydropyridine site), Cav1.2 alpha-1C (Rattus norvegicus, UniProt P22002); assay: Inhibitor of CA+/DHPSI/R in the Eurofins Cerep SafetyScreen44 (BI) by Radioactive Assay (Cerep_161); format: protein assay; set-up: scale not given: the % may be the effect or the level left; details: rat brain, probe [3H](+)PN200-110, compound concentration 10 uM, read-out: % Ctrl
[18] = biological target: Cannabinoid receptor 2 (Homo sapiens) (UniProt P34972); assay: Activity against CB2/PERIPH/H in the Eurofins Cerep SafetyScreen44 (BI) by Radioactive Assay (Cerep_37); details: Compound concentration 10.0 uM
Sequence of Cannabinoid receptor 2 (Homo sapiens) (P34972 whole entry): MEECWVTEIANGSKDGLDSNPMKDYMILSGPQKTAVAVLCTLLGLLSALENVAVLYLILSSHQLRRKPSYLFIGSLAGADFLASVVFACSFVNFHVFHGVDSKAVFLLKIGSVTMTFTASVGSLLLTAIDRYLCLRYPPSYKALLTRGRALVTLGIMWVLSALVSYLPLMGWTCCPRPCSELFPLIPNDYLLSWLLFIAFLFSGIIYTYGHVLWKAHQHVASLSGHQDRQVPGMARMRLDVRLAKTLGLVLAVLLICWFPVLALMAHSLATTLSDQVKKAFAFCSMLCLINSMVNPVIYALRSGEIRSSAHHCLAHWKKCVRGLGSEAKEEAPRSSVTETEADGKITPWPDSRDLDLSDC

[19] = biological target: Cholecystokinin receptor type A (Homo sapiens) (UniProt P32238); assay: CCK1 (CCKA) Eurofins-Cerep binding assay; set-up: ligand concentration 0.08 nM; details: Compound concentration 10.0 uM
[20] = biological target: D(1A) dopamine receptor (Homo sapiens) (UniProt P21728); assay: D1 Eurofins-Cerep binding assay; set-up: ligand concentration 0.3 nM; details: Compound concentration 10.0 uM
[21] = biological target: D(2) dopamine receptor (Homo sapiens) (UniProt P14416); assay: Agonist activity in the Eurofins Cerep SafetyScreen44 (BI) against D2SH_AGON by Scintillation counting (Cerep_1322); details: Compound concentration 10.0 uM
[22] = biological target: Sodium-dependent dopamine transporter (Homo sapiens) (UniProt Q01959); assay: dopamine transporter Eurofins-Cerep binding assay; details: Compound concentration 10.0 uM
Sequence of Sodium-dependent dopamine transporter (Homo sapiens) (Q01959 whole entry): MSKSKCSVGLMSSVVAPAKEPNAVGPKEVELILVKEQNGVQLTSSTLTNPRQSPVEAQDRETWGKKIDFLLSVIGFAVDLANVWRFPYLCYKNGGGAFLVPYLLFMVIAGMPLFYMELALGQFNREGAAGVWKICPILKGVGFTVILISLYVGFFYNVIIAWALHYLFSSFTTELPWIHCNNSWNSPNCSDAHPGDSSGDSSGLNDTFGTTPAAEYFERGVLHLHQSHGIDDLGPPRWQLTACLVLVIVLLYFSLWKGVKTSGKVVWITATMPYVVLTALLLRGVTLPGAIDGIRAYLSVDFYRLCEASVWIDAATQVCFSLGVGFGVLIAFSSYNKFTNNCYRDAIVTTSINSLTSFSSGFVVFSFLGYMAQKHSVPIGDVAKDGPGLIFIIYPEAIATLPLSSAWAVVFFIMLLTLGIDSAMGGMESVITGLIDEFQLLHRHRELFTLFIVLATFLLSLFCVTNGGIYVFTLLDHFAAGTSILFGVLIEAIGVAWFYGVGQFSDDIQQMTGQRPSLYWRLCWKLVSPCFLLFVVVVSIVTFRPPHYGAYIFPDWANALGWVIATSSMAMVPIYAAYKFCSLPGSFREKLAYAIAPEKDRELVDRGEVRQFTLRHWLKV

[23] = biological target: Delta-type opioid receptor (Homo sapiens) (UniProt P41143); assay: delta (DOP) Eurofins-Cerep binding assay; set-up: ligand concentration 0.5 nM; details: Compound concentration 10.0 uM
Sequence of Delta-type opioid receptor (Homo sapiens) (P41143 whole entry): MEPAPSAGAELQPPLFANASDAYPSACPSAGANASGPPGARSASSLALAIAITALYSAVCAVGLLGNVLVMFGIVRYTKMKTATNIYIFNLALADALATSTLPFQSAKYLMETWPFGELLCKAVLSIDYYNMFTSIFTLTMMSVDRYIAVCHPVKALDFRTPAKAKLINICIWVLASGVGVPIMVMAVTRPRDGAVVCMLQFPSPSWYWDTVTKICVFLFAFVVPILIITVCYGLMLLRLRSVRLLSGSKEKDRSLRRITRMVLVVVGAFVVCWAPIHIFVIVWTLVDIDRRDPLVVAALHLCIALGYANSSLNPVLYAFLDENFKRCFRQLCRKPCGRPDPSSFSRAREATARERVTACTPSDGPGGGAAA

[24] = biological target: Endothelin-1 receptor (Homo sapiens) (UniProt P25101); assay: ETA Eurofins-Cerep binding assay; set-up: ligand concentration 0.03 nM; details: Compound concentration 10.0 uM
Sequence of Endothelin-1 receptor (Homo sapiens) (P25101 whole entry): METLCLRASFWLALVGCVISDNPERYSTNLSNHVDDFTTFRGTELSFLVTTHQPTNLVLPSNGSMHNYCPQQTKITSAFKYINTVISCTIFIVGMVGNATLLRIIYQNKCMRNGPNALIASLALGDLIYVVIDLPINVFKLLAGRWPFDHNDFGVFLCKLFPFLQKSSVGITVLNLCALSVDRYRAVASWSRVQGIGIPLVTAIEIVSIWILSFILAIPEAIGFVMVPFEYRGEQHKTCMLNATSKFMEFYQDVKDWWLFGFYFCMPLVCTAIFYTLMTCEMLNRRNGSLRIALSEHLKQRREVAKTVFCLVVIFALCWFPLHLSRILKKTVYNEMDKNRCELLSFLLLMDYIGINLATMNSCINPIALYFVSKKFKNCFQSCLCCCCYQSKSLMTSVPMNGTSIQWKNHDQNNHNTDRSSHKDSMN

[25] = biological target: Glucocorticoid receptor (Homo sapiens) (UniProt P04150); assay: GR Eurofins-Cerep binding assay; details: Compound concentration 10.0 uM
[26] = biological target: Histamine H1 receptor (Homo sapiens) (UniProt P35367); assay: H1 Eurofins-Cerep binding assay; set-up: ligand concentration 1 nM; details: Compound concentration 10.0 uM
[27] = biological target: Histamine H2 receptor (Homo sapiens) (UniProt P25021); assay: H2 Eurofins-Cerep binding assay; set-up: ligand concentration 0.075 nM; details: Compound concentration 10.0 uM
Sequence of Histamine H2 receptor (Homo sapiens) (P25021 whole entry): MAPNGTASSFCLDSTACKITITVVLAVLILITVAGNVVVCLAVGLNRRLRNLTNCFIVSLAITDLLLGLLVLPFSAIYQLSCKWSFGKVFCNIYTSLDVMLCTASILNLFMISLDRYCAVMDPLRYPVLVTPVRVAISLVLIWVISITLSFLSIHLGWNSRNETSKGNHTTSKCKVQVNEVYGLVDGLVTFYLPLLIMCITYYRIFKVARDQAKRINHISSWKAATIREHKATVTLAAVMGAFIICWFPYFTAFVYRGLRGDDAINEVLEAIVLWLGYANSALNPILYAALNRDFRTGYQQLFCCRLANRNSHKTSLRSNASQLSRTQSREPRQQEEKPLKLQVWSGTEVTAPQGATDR

hERG (KCNH2) = hERG (KCNH2) (Homo sapiens, UniProt Q12809); assay: Inhibitor of HERG_DOFETILIDE in the Eurofins Cerep SafetyScreen44 (BI) by Scintillation counting (Cerep_4094); set-up: scale not given: the % may be the effect or the level left; details: probe [3H] Dofetilide, compound concentration 10 uM, read-out: % Ctrl
Rattus norvegicus [28] = organism: Rattus norvegicus; assay: KV channel Eurofins-Cerep binding assay; set-up: ligand concentration 0.01 nM; details: Compound concentration 10.0 uM
[29] = biological target: Tyrosine-protein kinase Lck (Homo sapiens) (UniProt P06239); assay: Inhibitor of LCK_CE in the Eurofins Cerep SafetyScreen44 (BI) by lanthanide chelation excitation (Cerep_2906); details: Compound concentration 10.0 uM
[30] = biological target: Muscarinic acetylcholine receptor M1 (Homo sapiens) (UniProt P11229); assay: M1 Eurofins-Cerep binding assay; set-up: ligand concentration 2 nM; details: Compound concentration 10.0 uM
[31] = biological target: Muscarinic acetylcholine receptor M2 (Homo sapiens) (UniProt P08172); assay: M2 Eurofins-Cerep binding assay; set-up: ligand concentration 2 nM; details: Compound concentration 10.0 uM
[32] = biological target: Muscarinic acetylcholine receptor M3 (Homo sapiens) (UniProt P20309); assay: M3 Eurofins-Cerep binding assay; set-up: ligand concentration 0.2 nM; details: Compound concentration 10.0 uM
[33] = biological target: MAO-A (amine oxidase [flavin-containing] A) (Homo sapiens, UniProt P21397); assay: Agonist activity in the Eurofins Cerep SafetyScreen44 (BI) against MAO-A_ANTAG by Scintillation counting (Cerep_443); set-up: scale not given: the % may be the effect or the level left; details: rat; compound concentration 10 uM; target entry is the homologue from another species; read-out: % Ctrl
[34] = biological target: Mu-type opioid receptor (Homo sapiens) (UniProt P35372); assay: mu (MOP) Eurofins-Cerep binding assay; set-up: ligand concentration 0.5 nM; details: Compound concentration 10.0 uM
[35] = biological target: Sodium-dependent noradrenaline transporter (Homo sapiens) (UniProt P23975); assay: norepinephrine transporter Eurofins-Cerep binding assay; set-up: ligand concentration 1 nM; details: Compound concentration 10.0 uM
Sequence of Sodium-dependent noradrenaline transporter (Homo sapiens) (P23975 whole entry): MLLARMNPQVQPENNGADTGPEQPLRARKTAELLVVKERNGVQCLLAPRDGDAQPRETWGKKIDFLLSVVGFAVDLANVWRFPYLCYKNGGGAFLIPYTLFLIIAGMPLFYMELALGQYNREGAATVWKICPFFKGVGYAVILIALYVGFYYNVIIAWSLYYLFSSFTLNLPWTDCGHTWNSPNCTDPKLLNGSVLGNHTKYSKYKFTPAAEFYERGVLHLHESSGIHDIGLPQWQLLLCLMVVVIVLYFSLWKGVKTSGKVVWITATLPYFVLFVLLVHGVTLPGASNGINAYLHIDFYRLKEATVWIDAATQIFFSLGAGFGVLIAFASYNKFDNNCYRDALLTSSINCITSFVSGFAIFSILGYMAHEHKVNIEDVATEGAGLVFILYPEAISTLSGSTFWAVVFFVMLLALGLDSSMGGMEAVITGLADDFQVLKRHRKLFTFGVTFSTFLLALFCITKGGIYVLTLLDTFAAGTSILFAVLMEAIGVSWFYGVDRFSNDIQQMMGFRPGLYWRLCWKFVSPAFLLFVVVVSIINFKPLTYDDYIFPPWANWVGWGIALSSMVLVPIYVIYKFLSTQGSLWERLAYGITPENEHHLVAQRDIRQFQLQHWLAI

[36] = biological target: Glutamate NMDA receptor (Rattus norvegicus) (UniProt P35439+Q00959+Q00960+Q00961+Q62645+Q8VHN2+Q9R1M7); assay: Inhibitor of NMDA/R in the Eurofins Cerep SafetyScreen44 (BI) by Radioactive Assay (Cerep_66); format: protein-complex assay; details: Compound concentration 10.0 uM
Homo sapiens = organism: Homo sapiens; assay: Agonist activity in the Eurofins Cerep SafetyScreen44 (BI) against N_NEURO_A4B2 by Radioligand Binding (Cerep_3029); format: protein-complex assay; details: Compound concentration 10.0 uM
[37] = biological target: cGMP-inhibited 3',5'-cyclic phosphodiesterase 3A (Homo sapiens) (UniProt Q14432); assay: Inhibitor of PDE3A in the Eurofins Cerep SafetyScreen44 (BI) by HTRF-homogeneous time resolved fluoresce (Cerep_4072); details: Compound concentration 10.0 uM
[38] = biological target: 3',5'-cyclic-AMP phosphodiesterase 4D (Homo sapiens) (UniProt Q08499); assay: Inhibitor of PDE4D2 in the Eurofins Cerep SafetyScreen44 (BI) by Scintillation counting (Cerep_4077); details: Compound concentration 10.0 uM
[39] = biological target: Sodium-dependent serotonin transporter (Homo sapiens) (UniProt P31645); assay: 5-HT transporter Eurofins-Cerep binding assay; set-up: ligand concentration 2 nM; details: Compound concentration 10.0 uM
[40] = biological target: Vasopressin V1a receptor (Homo sapiens) (UniProt P37288); assay: V1a Eurofins-Cerep binding assay; set-up: ligand concentration 0.3 nM; details: Compound concentration 10.0 uM
[41] = biological target: Androgen receptor (Homo sapiens) (UniProt P10275); details: Compound concentration 10.0 uM
Description: Activity against ANDROGEN/H in the Eurofins Cerep SafetyScreen44 (BI) by Radioactive Assay (Cerep_933)

Cathepsin S = Cathepsin S (Homo sapiens, UniProt P25774); assay: Scintillation proximity assay (CTSS)
Cathepsin K = Cathepsin K (Homo sapiens, UniProt P43235); assay: Luminescent based enzymatic assay (CTSK)
Procathepsin L = Procathepsin L (Homo sapiens, UniProt P07711); assay: Luminescent based enzymatic assay (CTSL)
Cathepsin B = Cathepsin B (Homo sapiens, UniProt P07858); assay: Luminescent based enzymatic assay (CTSB)

Sequence of 5-hydroxytryptamine receptor 1B (Homo sapiens) (P28222 whole entry): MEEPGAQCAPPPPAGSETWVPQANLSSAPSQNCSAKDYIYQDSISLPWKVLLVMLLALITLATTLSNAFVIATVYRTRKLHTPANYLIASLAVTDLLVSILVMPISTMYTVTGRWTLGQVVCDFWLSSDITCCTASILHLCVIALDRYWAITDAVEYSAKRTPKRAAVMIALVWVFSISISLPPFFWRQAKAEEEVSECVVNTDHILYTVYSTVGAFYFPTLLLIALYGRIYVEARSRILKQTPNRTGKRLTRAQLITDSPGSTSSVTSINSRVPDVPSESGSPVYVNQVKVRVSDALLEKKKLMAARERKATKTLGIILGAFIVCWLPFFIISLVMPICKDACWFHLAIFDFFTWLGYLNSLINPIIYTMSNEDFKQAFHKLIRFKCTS

In the case of CN1CCC(C#N)(NC(=O)[C@@H](NC(=O)N2CCOCC2)C(C)(C)C)CC1, the residual activity [1] was 61%, the residual activity [2] was 112% and the residual activity [3] was 108%. The residual activity [4] was 90%, the residual activity [5] was 96% and the residual activity [6] was 97%. For the same compound, the residual activity [7] was 123%, the residual activity [8] was 117% and the residual activity [9] was 97%. The residual activity [10] was 87%, the residual activity [11] was 105% and the residual activity [12] was 104%. The residual activity [13] was 80%, the residual activity [14] was 97% and the residual activity [15] was 92%. The residual activity (Rattus norvegicus [16]) was 111%, the activity at 10 µM [17] was 115% (not active) and the residual activity [18] was 109%. For the same compound, the residual activity [19] was 96%, the residual activity [20] was 105% and the residual activity [21] was 107%. For the same compound, the residual activity [22] was 105%, the residual activity [23] was 106% and the residual activity [24] was 112%. The residual activity [25] was 105%, the residual activity [26] was 106% and the residual activity [27] was 92%. For the same compound, the activity at 10 µM (hERG (KCNH2)) was 98% (not active), the residual activity (Rattus norvegicus [28]) was 110% and the residual activity [29] was 99%. For the same compound, the residual activity [30] was 108%, the residual activity [31] was 125% and the residual activity [32] was 112%. The activity at 10 µM [33] was 105% (not active), the residual activity [34] was 96% and the residual activity [35] was 120%. For the same compound, the residual activity [36] was 92%, the residual activity (Homo sapiens) was 98% and the residual activity [37] was 88%. For the same compound, the residual activity [38] was 105%, the residual activity [39] was 106% and the residual activity [40] was 94%. The residual activity [41] was 110%.
In the case of CCC(C)(C)CC[C@H](NC(=O)N1CCOCC1)C(=O)NC1(C#N)CCN(C)CC1, the residual activity [1] was 92.5%, the residual activity [2] was 116% and the residual activity [3] was 112%. It also gave a residual activity [4] of 104%, a residual activity [5] of 84.5% and a residual activity [6] of 104%. The residual activity [7] was 104%, the residual activity [8] was 118% and the residual activity [9] was 100%. The residual activity [10] was 102%, the residual activity [11] was 98.5% and the residual activity [12] was 110%. It also gave a residual activity [13] of 97%, a residual activity [14] of 101% and a residual activity [15] of 103%. For the same compound, the residual activity (Rattus norvegicus [16]) was 114%, the activity at 10 µM [17] was 106% (not active) and the residual activity [18] was 106%. The residual activity [19] was 88%, the residual activity [20] was 94% and the residual activity [21] was 106%. For the same compound, the residual activity [22] was 98.5%, the residual activity [23] was 92.5% and the residual activity [24] was 106%. It also gave a residual activity [25] of 102%, a residual activity [26] of 101% and a residual activity [27] of 106%. The activity at 10 µM (hERG (KCNH2)) was 100% (not active), the residual activity (Rattus norvegicus [28]) was 109% and the residual activity [29] was 96.5%. The residual activity [30] was 105%, the residual activity [31] was 106% and the residual activity [32] was 106%. The activity at 10 µM [33] was 108% (not active), the residual activity [34] was 81% and the residual activity [35] was 103%. For the same compound, the residual activity [36] was 106%, the residual activity (Homo sapiens) was 114% and the residual activity [37] was 103%. It also gave a residual activity [38] of 100%, a residual activity [39] of 106% and a residual activity [40] of 92.5%. For the same compound, the Kd (Cathepsin S) was 0.031 µM (active), the IC50 (Cathepsin K) was > 10 µM (not active) and the IC50 (Procathepsin L) was > 30 µM (not active). For the same compound, the IC50 (Cathepsin B) was > 10 µM (not active) and the residual activity [41] was 107%.
